Measurements as given in US8008258B2, “Cop 1 for treatment of inflammatory bowel diseases” (Yeda Research and Development Co. Ltd., priority 2003, dated 2011).
Marks after values point to notes of the source that are not given here.

Tests used:
[1] = tested on: DSS-induced colitis; test: Dextran sulfate sodium (DSS)-induced colitis in C57BL/6 mice; format: in vivo; settings: GA 2.5 mg/day SC daily, by day 7 after DSS feeding, preliminary experiment
Experimental: Feeding mice for several days with dextran sulfate sodium (DSS) polymers in the drinking water induces an acute colitis with bloody diarrhea, histological damage, and inflammation (Wirtz and Neurath, 2000).
Female C57BL/6, 7 weeks old mice, were fed with 2.5% DSS solution in the drinking water for 7 days. GA was administered subcutaneously by daily injections—2.5 mg/day, in PBS, starting either 7 days before or in the same day of DSS feeding.

[2] = tested on: TNBS-induced colitis; test: TNBS-induced colitis in BALB/c mice, oral GA treatment; format: in vivo; design: key to Macroscopic scoring of colon damage: Ulceration (max 10): 0 = completely normal, 10 = most severe ulceration; key to Macroscopic scoring of colon damage: Adhesion (max 2): adhesions score 0 to 2; key to Macroscopic scoring of colon damage: Diarrhea (max 1): diarrhea score 0 to 1; key to Macroscopic scoring of colon damage: Thickness (max 1): thickness score 0 to 1
Experimental: Induction of cholitis in mice. TNBS-colitis was induced by rectal instillation of 2,4,6-trinitrobenzene sulfonic acid 5% (w/v), mixed with an equal volume of ethanol, into anesthetized mice (100 μl/mouse). Each treatment group included 6-12 mice. Mice that died before day 4 were considered as treatment casualties and were not taken into consideration.
Assessment of colitis. Weight changes and survival were monitored daily. Five to eight days following TNBS instillation, mice were sacrificed and macroscopic as well as microscopic colonic damage was evaluated.
Macroscopic colonic scoring. Gross colonic damage was graded according to Reuter et al. (1996), using the combined values of the four standard macroscopic parameters: degree of colonic ulcerations (scale from 0—completely normal, to 10—most severe); intestinal and peritoneal adhesions (0 to 2); diarrhea (0 to 1); and thickness (0 to 1). The total score is the arithmetic sum of the four scores. The evaluation was performed in a blind procedure.
Microscopic scoring. Proximal, medial, and distal portions of colon were fixed in 10% phosphate-buffered formalin. Paraffin-embedded sections were stained with hematoxylin and eosin. The degree of histological damage and inflammation was graded according to Elson et al. (1996) using the combined values of the four microscopic parameters: extent (scale from 0—completely normal, to 2—involving more than one segment); inflammation (0—none to 3—severe); damage (0 to 3—severe transmural); and regeneration (0—complete re-eptihelization to 3—none). The total score is the arithmetic sum of the four scores. The evaluation was performed in a blind procedure.
Oral treatment—250 μg/day in PBS, fed by gastric intubation with an 18-gauge stainless steel feeding needle. Unless otherwise stated, feedings were performed on days-7, -5, -3, -1, 0, 2, 4 and 6, relative to the day of TNBS instillation.
Colitis was induced by TNBS in 50% ethanol. […] Colonic scoring was performed 7 or 8 days after disease induction. Mice that died during the first 2 days (usually around 20% in all groups) were considered as treatment casualties and thus are not presented; each group contained 4-7 mice that survived after day 2.

[3] = tested on: mesenteric lymph nodes (MLN) cells; test: Lymphocyte proliferation (thymidine incorporation) in response to colonic extract, cells from colitis-induced mice; format: cell-based
Experimental: FIGS. 4A-4F show the effect of GA on the lymphocyte proliferation in different mouse strains. The responses of normal mice, colitis-induced mice, and colitis-induced mice treated with GA orally or parenterally daily are compared in the BALB/c (FIGS. 4A, 4B), (SJL/JxBALB/c)F1 (FIGS. 4C, 4D), and SJL/J (FIGS. 4E, 4F) strains. Cells from spleens (FIGS. 4A, 4C, 4E) and mesenteric lymph nodes (MLN) (FIGS. 4B, 4D, 4F) were cultured, 7 days after disease induction, with no antigen, colonic extract (CE, 200 μg/ml), or GA (50 μg/ml). Results of thymidine incorporation are expressed as mean cpm±ISD of six culture wells and represent one of two similar experiments, using pooled cells from 3-5 mice in each group. # Indicates significant increase in the response to CE by colitic mice. * Indicates significant decrease in the response to CE induced by GA treatment.
Colon extract. Colons of syngeneic normal mice were cut into small strips and homogenized. The homogenate was diluted in PBS and passed through glass wool. Protein quantity was measured by using a protein assay kit (Bio-Rad, Richmond, Calif.).
Reactivity assays. Spleens and mesenteric lymph nodes (MLN) cells (0.5×10^6 cell/well) were cultured with either GA (50 μg/ml), colon extract (200 μg/ml), immobilized anti-CD3 (5 μg/ml), or PBS control, in a final volume of 250 μl/well (6 wells for each antigen). For proliferation assay, cells were cultured in RPMI 1640 with 10% FCS, pulsed with 1 μCi of [3H] thymidine after 48 h incubation, and harvested 12 h later. For cytokine (TNF-α and TGF-β) assay, cells were cultured in serum-free medium (DCCM-1), supernatants were collected after 72 h, and tested for the cytokines by ELISA using mAbs pairs (R&D Systems, Minneapollis, Minn.) according to the manufacturer's instruction.

[4] = Average of three experiments, GA oral 250 μg/mouse every other day from day −7, scoring 7 or 8 days after induction
[5] = Exp. No. 1, GA oral 250 μg/mouse every other day from day −7, scoring 7 or 8 days after induction
[6] = Exp. No. 2, GA oral 250 μg/mouse every other day from day −7, scoring 7 or 8 days after induction
[7] = Exp. No. 3, GA oral 250 μg/mouse every other day from day −7, scoring 7 or 8 days after induction
[8] = GA no colitis (GA oral without TNBS induction)
[9] = Timing study, GA oral 250 μg/mouse every other day starting day 0, 8 feedings
[10] = Timing study, GA oral 250 μg/mouse every other day starting day +2, 6 feedings
[11] = Timing study, GA oral 250 μg/mouse every other day starting day −3, 8 feedings
[12] = Timing study, GA oral 250 μg/mouse every other day starting day −7, 8 feedings

Which results are given for glatiramer acetate [GA]?
Maximum weight loss ([1]; injected from day 0): 4%; Maximum weight loss ([1]; injected from day −7): 7%; Macroscopic scoring of colon damage: Adhesion (max 2) [2, 4]: 0.4; Macroscopic scoring of colon damage: Diarrhea (max 1) [2, 4]: 0.2; Macroscopic scoring of colon damage: Thickness (max 1) [2, 4]: 0.0; Macroscopic scoring of colon damage: Ulceration (max 10) [2, 4]: 2.1; Macroscopic scoring of colon damage: Adhesion (max 2) [2, 5]: 0.6; Macroscopic scoring of colon damage: Diarrhea (max 1) [2, 5]: 0.0; Macroscopic scoring of colon damage: Thickness (max 1) [2, 5]: 0.0; Macroscopic scoring of colon damage: Total Score (max 14) [2, 5]: 1.6*; Macroscopic scoring of colon damage: Ulceration (max 10) [2, 5]: 1.0; Macroscopic scoring of colon damage: Adhesion (max 2) [2, 6]: 0.5; Macroscopic scoring of colon damage: Diarrhea (max 1) [2, 6]: 0.5; Macroscopic scoring of colon damage: Thickness (max 1) [2, 6]: 0.0; Macroscopic scoring of colon damage: Total Score (max 14) [2, 6]: 4.4*; Macroscopic scoring of colon damage: Ulceration (max 10) [2, 6]: 3.4; Macroscopic scoring of colon damage: Adhesion (max 2) [2, 7]: 0.1; Macroscopic scoring of colon damage: Diarrhea (max 1) [2, 7]: 0.0; Macroscopic scoring of colon damage: Thickness (max 1) [2, 7]: 0.0; Macroscopic scoring of colon damage: Total Score (max 14) [2, 7]: 2.1*; Macroscopic scoring of colon damage: Ulceration (max 10) [2, 7]: 2.0; Macroscopic scoring of colon damage: Adhesion (max 2) [2, 8]: 0.0; Macroscopic scoring of colon damage: Diarrhea (max 1) [2, 8]: 0.0; Macroscopic scoring of colon damage: Thickness (max 1) [2, 8]: 0.0; Macroscopic scoring of colon damage: Total Score (max 14) [2, 8]: 0.0; Macroscopic scoring of colon damage: Ulceration (max 10) [2, 8]: 0.0; Reduction in disease severity (total macroscopic score) versus control ([2]; GA oral feedings started seven days before TNBS, total of 8 feedings every other day): 5.2 fold; Reduction in disease severity (total macroscopic score) versus control ([2]; GA oral treatment started on the day of TNBS inoculation, or two days after disease induction): 2.2 fold; Reduction in disease severity (total macroscopic score) versus control ([2]; GA oral treatment started three days before induction): 2.75 fold; Mortality due to the disease process ([2]; GA oral, 8 days after induction): 20%; Reduction of average histological score versus colitis group ([2]; GA oral, day 7, p=0.007): 2.8 folds; Average histological score (from a maximal score of 12.0) ([2]; GA oral, mice surviving till day 7): 2.8; Histological or macroscopic damage ([2]; GA treatment without TNBS induction): did not result in any histological or macroscopic damage; Macroscopic scoring of colon damage: Adhesion (max 2) [2, 9]: 0.7; Macroscopic scoring of colon damage: Diarrhea (max 1) [2, 9]: 0.0; Macroscopic scoring of colon damage: Thickness (max 1) [2, 9]: 0.0; Macroscopic scoring of colon damage: Total Score (max 14) [2, 9]: 5.0*; Macroscopic scoring of colon damage: Ulceration (max 10) [2, 9]: 4.3; Macroscopic scoring of colon damage: Adhesion (max 2) [2, 10]: 0.3; Macroscopic scoring of colon damage: Diarrhea (max 1) [2, 10]: 0.0; Macroscopic scoring of colon damage: Thickness (max 1) [2, 10]: 0.0; Macroscopic scoring of colon damage: Total Score (max 14) [2, 10]: 5.0*; Macroscopic scoring of colon damage: Ulceration (max 10) [2, 10]: 4.7; Macroscopic scoring of colon damage: Adhesion (max 2) [2, 11]: 0.5; Macroscopic scoring of colon damage: Diarrhea (max 1) [2, 11]: 0.0; Macroscopic scoring of colon damage: Thickness (max 1) [2, 11]: 0.0; Macroscopic scoring of colon damage: Total Score (max 14) [2, 11]: 4.0*; Macroscopic scoring of colon damage: Ulceration (max 10) [2, 11]: 3.5; Macroscopic scoring of colon damage: Adhesion (max 2) [2, 12]: 0.1; Macroscopic scoring of colon damage: Diarrhea (max 1) [2, 12]: 0.0; Macroscopic scoring of colon damage: Thickness (max 1) [2, 12]: 0.0; Macroscopic scoring of colon damage: Total Score (max 14) [2, 12]: 2.1*; Macroscopic scoring of colon damage: Ulceration (max 10) [2, 12]: 2.0; Decrease of total macroscopic damage versus control ([2]; average of three experiments, GA oral 250 μg/mouse, alternate days from day −7, 8 feedings): 3.8 fold; Macroscopic grade of representative colons (FIG. 1A) ([2]; colons from two TNBS-induced mice treated orally with GA (0.25 mg/mouse, 8 feedings), 7 days after TNBS, focal hyperemia only): 1; Maximum weight loss (of body weight) ([2]; mice fed with GA, by day 3 after TNBS inoculation): 5%; Complete restoration of original weight ([2]; mice fed with GA, day after TNBS inoculation): ≤ 5 days; Inhibition of the MLN proliferation response to colonic extract by GA treatment ([3]; MLN from (SJL/JxBALB/c)F1 mice treated either orally or parenterally with GA): complete inhibition; Inhibition of the local MLN proliferation response to colonic extract by GA treatment ([3]; MLN from BALB/c, colonic extract 200 μg/ml, 7 days after disease induction): 66%; Inhibition of the MLN proliferation response to colonic extract by GA treatment ([3]; MLN from SJL/J mice treated either orally or parenterally with GA): complete inhibition
